Measurements published in patent US20240270762A1, “PENICILLIN-BINDING PROTEIN INHIBITORS” (priority 2021, published 2024).
In brackets after ≈: the same amount, converted by molar mass.

What was measured:
N. gonorrhoeae MS11 = assay: Liquid broth MIC in Fastidious broth; details: Neisseria gonorrhoeae, MS11, read-out: Minimum Inhibitory Concentration (MIC), N. gonorrhoeae MS11
[1] = target: T1, PBP2 from Neisseria gonorrhoeae (FA19) (Neisseria gonorrhoeae, UniProt P08149); assay: Bocillin-FL fluorescence polarization competition binding, N. gonorrhoeae PBP2; details: fluorescence polarization competition binding assay using Bocillin-FL, read-out: N. gonorrhoeae PBP2 Potency
T1 construct: made in house
T1 sequence (P08149 whole entry): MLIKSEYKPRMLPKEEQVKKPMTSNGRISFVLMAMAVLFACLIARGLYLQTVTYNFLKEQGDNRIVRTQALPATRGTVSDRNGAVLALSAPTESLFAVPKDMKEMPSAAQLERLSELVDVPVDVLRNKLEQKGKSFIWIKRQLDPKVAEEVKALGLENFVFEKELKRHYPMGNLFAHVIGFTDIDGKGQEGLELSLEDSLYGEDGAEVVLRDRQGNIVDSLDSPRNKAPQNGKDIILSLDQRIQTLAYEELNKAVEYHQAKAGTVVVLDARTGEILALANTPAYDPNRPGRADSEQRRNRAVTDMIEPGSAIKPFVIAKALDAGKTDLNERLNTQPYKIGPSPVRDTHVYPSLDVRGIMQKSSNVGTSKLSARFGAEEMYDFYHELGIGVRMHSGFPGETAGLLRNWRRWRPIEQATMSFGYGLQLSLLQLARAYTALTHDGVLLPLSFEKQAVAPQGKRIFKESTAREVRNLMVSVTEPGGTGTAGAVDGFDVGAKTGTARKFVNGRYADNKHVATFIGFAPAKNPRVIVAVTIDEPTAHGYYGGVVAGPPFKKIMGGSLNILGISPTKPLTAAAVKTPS
From the text: To determine the ability of boronic acid-based test PBP inhibitors to bind Penicillin Binding Proteins (PBPs), Bocillin-FL (fluorescently-labeled penicillin V; ThermoFisher Scientific) was used in a fluorescence polarization (FP) competition binding assay to assess inhibitor binding to PBP3 from Escherichia coli (K-12), PBP3 from Pseudomonas aeruginosa (PAO1), PBP1a and PBP3 from Acinetobacter baumannii (ATCC 19606), and PBP2 from Neisseria gonorrhoeae (FA19). PBPs were cloned and purified as described previously (E. coli PBP3, King, D. T, et al., ACS Infectious Diseases 2015, 1, 175-184; P. aeruginosa PBP3, Han et. al., PNAS 2010, 107 (51), 22002-22007; A. baumannii PBPs, Penwell et. al., Antimicrob. Agents Chemother. 2015, 59 (3), 1680-1689; N. gonorrhoeae PBP2, Singh et. al., J. Biol. Chem. 2019, 294 (38), 14020-14032). To establish assay conditions for competition binding, enzyme titration/saturation binding experiments were initially performed. Bocillin-FL was prepared at 0.2 μM in a buffer comprised of 50 mM Hepes (pH 8.0), 300 mM NaCl and 10% (v/v) glycerol for reactions with E. coli, P. aeruginosa and N. gonorrhoeae PBPs, and 25 mM Tris (pH 8.0), 200 mM NaCl, 10% (v/v) glycerol and 0.005% (v/v) Tween 20 for reactions with A. baumannii PBPs. Saturation binding was performed by mixing 40 μl of PBP solutions ranging in concentrations from 0-24 μM with 40 μl of the 0.2 μM Bocillin-FL solution, in individual wells of a black 384-well microplate. FP was measured immediately upon mixing (Excitation, 490 nm; Emission, 520 nm; g-factor, 0.96), using a Cytation3 (BioTek) microplate reader and measured continuously for up to 120 minutes. […] The competition binding assay (80 μl final volume) was validated using beta-lactams and PBPs at final concentrations of: 1.5 μM for E. coli PBP3; 0.75 μM for P. aeruginosa PBP3; 1 μM for A. baumannii PBP1a; 0.2 μM for A. baumannii PBP3; and 0.25 μM for N. gonorrhoeae PBP2. Bocillin-FL was at 0.1 μM (0.05 μM with A. baumannii PBP1a) and beta-lactam concentrations ranged from 0-1,000 μM. E. coli PBP3 was incubated with increasing concentrations of ampicillin in a black 384-well microplate (Corning) for 30 minutes. P. aeruginosa PBP3 was incubated for 15 minutes with aztreonam, whereas A. baumannii PBP1a and PBP3 were incubated for 15 minutes with meropenem, and then Bocillin-FL was added followed immediately by the FP measurement for up to 60 minutes. […] The beta-lactam potency was reported as the concentration of beta-lactam required to reduce the amount of PBP bound-Bocillin-FL by 50% (EC50). […] Binding assays for boronic acid PBP inhibitors were performed in an identical fashion for the respective PBPs.

[2] = target: T2, PBP3 from Escherichia coli (K-12) (Escherichia coli, UniProt P0AD68); assay: Bocillin-FL fluorescence polarization competition binding, E. coli PBP3
T2 construct: made in house
T2 sequence (P0AD68 1-577): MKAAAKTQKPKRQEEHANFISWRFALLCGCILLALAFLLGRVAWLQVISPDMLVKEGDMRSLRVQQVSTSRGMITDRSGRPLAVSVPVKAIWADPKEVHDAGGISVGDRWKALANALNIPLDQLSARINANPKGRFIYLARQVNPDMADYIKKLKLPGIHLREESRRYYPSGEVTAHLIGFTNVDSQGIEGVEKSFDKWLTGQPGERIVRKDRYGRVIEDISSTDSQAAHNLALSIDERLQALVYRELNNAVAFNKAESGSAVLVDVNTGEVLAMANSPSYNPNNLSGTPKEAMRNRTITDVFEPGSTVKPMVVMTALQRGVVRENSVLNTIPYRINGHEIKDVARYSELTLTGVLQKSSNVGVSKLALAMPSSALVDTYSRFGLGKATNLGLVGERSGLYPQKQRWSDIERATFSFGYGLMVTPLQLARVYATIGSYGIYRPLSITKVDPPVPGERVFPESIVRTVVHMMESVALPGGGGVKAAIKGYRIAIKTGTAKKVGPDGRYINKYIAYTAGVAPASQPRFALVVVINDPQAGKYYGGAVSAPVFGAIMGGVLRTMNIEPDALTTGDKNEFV
In short: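 Purified PBP was preincubated with inhibitor (E. coli PBP3 1.5 μM, 30 min; P. aeruginosa PBP3 0.75 μM, A. baumannii PBP3 0.2 μM and PBP1a 1 μM, 15 min), then Bocillin-FL (0.1 μM; 0.05 μM for PBP1a) added and FP read up to 60 min. EC50 = 50% loss of bound probe.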

N. gonorrhoeae WHO L = assay: Liquid broth MIC in Fastidious broth; details: Neisseria gonorrhoeae, read-out: Minimum Inhibitory Concentration (MIC), N. gonorrhoeae WHO L

Row | SMILES | MIC (N. gonorrhoeae MS11) | EC50 [1] | EC50 [2] | MIC (N. gonorrhoeae WHO L)
1 | CC(C)(C)C(=O)NC(C(=O)N[C@H]1Cc2cccc(C(=O)O)c2OB1O)c1ccc(P(=O)(O)O)cc1 (stereo partly drawn) [Example 29, (3R)-2-hydroxy-3-(2-(4-phosphonophenyl)-2-pivalamidoacetamido)-3,4-dihydro-2H-benzo[e][1,2]oxaborinine-8-carboxylic acid] | 16 to 32 µg/mL (≈ 31.7 to 63.5 µM) | < 10 µM | 50 to 250 µM | 16 to 32 µg/mL (≈ 31.7 to 63.5 µM)
2 | O=C(O)c1cccc2c1OB(O)[C@@H](NC(=O)C(NC(=O)C1CC1)c1ccc(P(=O)(O)O)cc1)C2 (stereo partly drawn) [Example 30, (3R)-3-(2-(cyclopropanecarboxamido)-2-(4-phosphonophenyl)acetamido)-2-hydroxy-3,4-dihydro-2H-benzo[e][1,2]oxaborinine-8-carboxylic acid] | 16 to 32 µg/mL (≈ 32.8 to 65.5 µM) | < 10 µM | 50 to 250 µM | 16 to 32 µg/mL (≈ 32.8 to 65.5 µM)
3 | O=C(O)c1cccc2c1OB(O)[C@@H](NC(=O)C(NC(=O)C1CCCCC1)c1ccc(P(=O)(O)O)cc1)C2 (stereo partly drawn) [Example 31, (3R)-3-(2-(cyclohexanecarboxamido)-2-(4-phosphonophenyl)acetamido)-2-hydroxy-3,4-dihydro-2H-benzo[e][1,2]oxaborinine-8-carboxylic acid] | 16 to 32 µg/mL (≈ 30.2 to 60.3 µM) | < 10 µM | 50 to 250 µM | 16 to 32 µg/mL (≈ 30.2 to 60.3 µM)
4 | O=C(NC(C(=O)N[C@H]1Cc2cccc(C(=O)O)c2OB1O)c1ccc(P(=O)(O)O)cc1)c1ccccn1 (stereo partly drawn) [Example 32, (3R)-2-hydroxy-3-(2-(4-phosphonophenyl)-2-(picolinamido)acetamido)-3,4-dihydro-2H-benzo[e][1,2]oxaborinine-8-carboxylic acid] | 1 to 2 µg/mL (≈ 1.9 to 3.81 µM) | < 10 µM | 10 to 50 µM | 16 to 32 µg/mL (≈ 30.5 to 60.9 µM)
5 | CC(=O)N1CCC[C@@H]1C(=O)N[C@H](C(=O)N[C@H]1Cc2cccc(C(=O)O)c2OB1O)c1ccc(P(=O)(O)O)cc1 [Example 33, (3R)-3-(2-((R)-1-acetylpyrrolidine-2-carboxamido)-2-(4-phosphonophenyl)acetamido)-2-hydroxy-3,4-dihydro-2H-benzo[e][1,2]oxaborinine-8-carboxylic acid] | 16 to 32 µg/mL (≈ 28.6 to 57.2 µM) | < 10 µM | 50 to 250 µM | 16 to 32 µg/mL (≈ 28.6 to 57.2 µM)
6 | CS(=O)(=O)N1CCC[C@@H]1C(=O)N[C@H](C(=O)N[C@H]1Cc2cccc(C(=O)O)c2OB1O)c1ccc(P(=O)(O)O)cc1 [Example 34, (R)-2-hydroxy-3-((S)-2-((R)-1-(methylsulfonyl)pyrrolidine-2-carboxamido)-2-(4-phosphonophenyl)acetamido)-3,4-dihydro-2H-benzo[e][1,2]oxaborinine-8-carboxylic acid] | 16 to 32 µg/mL (≈ 26.9 to 53.8 µM) | 50 to 250 µM | 50 to 250 µM | 16 to 32 µg/mL (≈ 26.9 to 53.8 µM)
7 | CS(=O)(=O)N1CCC[C@@H]1C(=O)N[C@@H](C(=O)N[C@H]1Cc2cccc(C(=O)O)c2OB1O)c1ccc(P(=O)(O)O)cc1 [Example 35, (R)-2-hydroxy-3-((R)-2-((R)-1-(methylsulfonyl)pyrrolidine-2-carboxamido)-2-(4-phosphonophenyl)acetamido)-3,4-dihydro-2H-benzo[e][1,2]oxaborinine-8-carboxylic acid] | 1 to 2 µg/mL (≈ 1.68 to 3.36 µM) | < 10 µM | 10 to 50 µM | 16 to 32 µg/mL (≈ 26.9 to 53.8 µM)
8 | O=C(O)c1cccc2c1OB(O)[C@@H](NC(=O)[C@@H](NC(=O)N1CCCCC1=O)c1ccc(P(=O)(O)O)cc1)C2 [Example 36, (R)-2-hydroxy-3-((S)-2-(2-oxopiperidine-1-carboxamido)-2-(4-phosphonophenyl)acetamido)-3,4-dihydro-2H-benzo[39e][1,2]oxaborinine-8-carboxylic acid] | 16 to 32 µg/mL (≈ 29.3 to 58.7 µM) | 10 to 50 µM | 50 to 250 µM | 16 to 32 µg/mL (≈ 29.3 to 58.7 µM)
9 | O=C(O)c1cccc2c1OB(O)[C@@H](NC(=O)[C@H](NC(=O)N1CCCCC1=O)c1ccc(P(=O)(O)O)cc1)C2 [Example 37, (R)-2-hydroxy-3-((R)-2-(2-oxopiperidine-1-carboxamido)-2-(4-phosphonophenyl)acetamido)-3,4-dihydro-2H-benzo[e][1,2]oxaborinine-8-carboxylic acid] | 1 to 2 µg/mL (≈ 1.83 to 3.67 µM) | < 10 µM | < 10 µM | 16 to 32 µg/mL (≈ 29.3 to 58.7 µM)
10 | CN1CCCN(C(=O)NC(C(=O)N[C@H]2Cc3cccc(C(=O)O)c3OB2O)c2ccc(P(=O)(O)O)cc2)C1=O (stereo partly drawn) [Example 38, (3R)-2-hydroxy-3-(2-(3-methyl-2-oxohexahydropyrimidine-1-carboxamido)-2-(4-phosphonophenyl)acetamido)-3,4-dihydro-2H-benzo[e][1,2]oxaborinine-8-carboxylic acid] | 1 to 2 µg/mL (≈ 1.78 to 3.57 µM) | < 10 µM | 10 to 50 µM | 16 to 32 µg/mL (≈ 28.6 to 57.1 µM)
11 | O=C(O)c1cccc2c1OB(O)[C@@H](NC(=O)[C@@H](NC(=O)N1CCNC1=O)c1ccc(P(=O)(O)O)cc1)C2 [Example 39, (R)-2-hydroxy-3-((S)-2-(2-oxoimidazolidine-1-carboxamido)-2-(4-phosphonophenyl)acetamido)-3,4-dihydro-2H-benzo[e][1,2]oxaborinine-8-carboxylic acid] | 1 to 2 µg/mL (≈ 1.88 to 3.76 µM) | 10 to 50 µM | 50 to 250 µM | 16 to 32 µg/mL (≈ 30.1 to 60.1 µM)
12 | O=C(O)c1cccc2c1OB(O)[C@@H](NC(=O)[C@H](NC(=O)N1CCNC1=O)c1ccc(P(=O)(O)O)cc1)C2 [Example 40, (R)-2-hydroxy-3-((R)-2-(2-oxoimidazolidine-1-carboxamido)-2-(4-phosphonophenyl)acetamido)-3,4-dihydro-2H-benzo[e][1,2]oxaborinine-8-carboxylic acid] | < 1 µg/mL | < 10 µM | < 10 µM | 1 to 2 µg/mL (≈ 1.88 to 3.76 µM)
13 | CN1CCN(C(=O)NC(C(=O)N[C@H]2Cc3cccc(C(=O)O)c3OB2O)c2ccc(P(=O)(O)O)cc2)C1=O (stereo partly drawn) [Example 41, (3R)-2-hydroxy-3-(2-(3-methyl-2-oxoimidazolidine-1-carboxamido)-2-(4-phosphonophenyl)acetamido)-3,4-dihydro-2H-benzo[e][1,2]oxaborinine-8-carboxylic acid] | < 1 µg/mL | < 10 µM | < 10 µM | 1 to 2 µg/mL (≈ 1.83 to 3.66 µM)
14 | CCN1CCN(C(=O)NC(C(=O)N[C@H]2Cc3cccc(C(=O)O)c3OB2O)c2ccc(P(=O)(O)O)cc2)C1=O (stereo partly drawn) [Example 42, (3R)-3-(2-(3-ethyl-2-oxoimidazolidine-1-carboxamido)-2-(4-phosphonophenyl)acetamido)-2-hydroxy-3,4-dihydro-2H-benzo[e][1,2]oxaborinine-8-carboxylic acid] | < 1 µg/mL | < 10 µM | < 10 µM | 1 to 2 µg/mL (≈ 1.78 to 3.57 µM)
15 | CS(=O)(=O)N1CCC[C@H]1C(=O)N[C@H](C(=O)N[C@H]1Cc2cccc(C(=O)O)c2OB1O)c1ccc(P(=O)(O)O)cc1 [Example 43, (R)-2-hydroxy-3-((S)-2-((S)-1-(methylsulfonyl)pyrrolidine-2-carboxamido)-2-(4-phosphonophenyl)acetamido)-3,4-dihydro-2H-benzo[e][1,2]oxaborinine-8-carboxylic acid] | 4 to 8 µg/mL (≈ 6.72 to 13.4 µM) | 50 to 250 µM | 50 to 250 µM | 16 to 32 µg/mL (≈ 26.9 to 53.8 µM)
16 | CS(=O)(=O)N1CCC[C@H]1C(=O)N[C@@H](C(=O)N[C@H]1Cc2cccc(C(=O)O)c2OB1O)c1ccc(P(=O)(O)O)cc1 [Example 44, (R)-2-hydroxy-3-((R)-2-((S)-1-(methylsulfonyl)pyrrolidine-2-carboxamido)-2-(4-phosphonophenyl)acetamido)-3,4-dihydro-2H-benzo[e][1,2]oxaborinine-8-carboxylic acid] | 1 to 2 µg/mL (≈ 1.68 to 3.36 µM) | < 10 µM | 10 to 50 µM | 16 to 32 µg/mL (≈ 26.9 to 53.8 µM)
